Measurements from patent US10544130B2, “Metallo-beta-lactamase inhibitors” (priority 2015, dated 2020).
Read-outs that look alike come from different tables or passages of the source.

Assays:
[1] = test system: Escherichia coli expressing NDM-1 (CLB30005, CLB30016); type: cell-based; details: with imipenem 1 μg/ml, 95% inhibition of bacterial growth
Summary of the method: (§1)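 Clinical strains were grown overnight at 35 °C on blood agar, adjusted to set OD600 in saline and diluted 1:100 into 1.1× CAMHB. Inhibitor was tested with and without imipenem at 1 μg/ml. After 22–24 h at 35 °C, absorbance was read to give synergistic concentration.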

[2] = test system: Serratia marcescens expressing IMP-1 (CL5741); type: cell-based; details: with imipenem 1 μg/ml; 95% inhibition of bacterial growth
Summary of the method: as §1

[3] = test system: Pseudomonas aeruginosa PAO1 MB9798 (efflux+, IMP-1); details: ratio MITC95 PA 9798/MITC95 PA 9799; imipenem at 2 μg/mL
Summary of the method: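 Isogenic PAO1 pair (efflux+ MB9798, efflux− MB9799, both IMP-1) tested by microbroth MIC with fixed imipenem and/or ceftazidime, usually at CLSI breakpoint, plus fixed class A/C inhibitor against AmpC. MBL inhibitor titrated; concentration restoring susceptibility recorded and fold difference between strains taken as efflux extent.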

For `C[N+]1(CCN)CC[C@H](NS(=O)(=O)c2ccc(-c3cccc4[nH]c(N)nc34)c(-c3nn[nH]n3)c2S(N)(=O)=O)C1` (stereo partly drawn) [Example 249, (3S)-3-{[4-(2-amino-1H-1,3-benzodiazol-4-yl)-2-sulfamoyl-3-(2H-1,2,3,4-tetrazol-5-yl)benzene]sulfonamido}-1-(2-aminoethyl)-1-methylpyrrolidin-1-ium methaneperoxoate], the “Escherichia coli (NDM-1) MITC95” value [1] was 0.3906 µM and the “Serratia marcescens (IMP-1) MITC95” value [2] was 1.563 µM.

In the case of `Nc1nc2c(-c3ccc(S(=O)(=O)NC4CCNCC4)c(S(N)(=O)=O)c3-c3nn[nH]n3)cccc2[nH]1` [Example 260, 4-(2-amino-1H-benzo[d]imidazol-4-yl)-N1-(piperidin-4-yl)-3-(1H-tetrazol-5-yl)benzene-1,2-disuffonamide], the Efflux ratio [3] is reported as 1.00 and the “Escherichia coli (NDM-1) MITC95” value [1] is reported as 0.7813 µM.

`CC[C@@H](CN)NS(=O)(=O)c1ccc(-c2cccc3[nH]c(N)nc23)c(-c2nn[nH]n2)c1S(N)(=O)=O` [Example 264, (S)-4-(2-amino-1H-benzo[d]imidazol-4-yl)-N1-(1-aminobutan-2-yl)-3-(2H-tetrazol-5-yl)benzene-1,2-disulfonamide] was tested, and the Efflux ratio [3] was 4.00 and the “Escherichia coli (NDM-1) MITC95” value [1] was 0.7813 µM.

For `C[C@@H](CCN)NS(=O)(=O)c1ccc(-c2cccc3[nH]c(N)nc23)c(-c2nn[nH]n2)c1S(N)(=O)=O` [Example 267, (S)-4-(2-amino-1H-benzo[d]imidazol-4-yl)-N1-(4-aminobutan-2-yl)-3-(2H-tetrazol-5-yl)benzene-1,2-disulfonamide], the Efflux ratio [3] was 1.00 and the “Escherichia coli (NDM-1) MITC95” value [1] was 0.7813 µM.

For `NCCN1CC[C@H](NS(=O)(=O)c2ccc(-c3cccc4[nH]c(N)nc34)c(-c3nn[nH]n3)c2S(N)(=O)=O)C1` [Example 268, (S)-4-(2-amino-1H-benzo[d]imidazol-4-yl)-N1-(1-(2-aminoethyl)pyrrolidin-3-yl)-3-(2H-tetrazol-5-yl)benzene-1,2-disulfonamide], the Efflux ratio [3] was 1.00 and the “Escherichia coli (NDM-1) MITC95” value [1] was 0.7813 µM.

With `NCC(=O)NC1CCC[C@@H](c2ccc(S(=O)(=O)N[C@@H]3CCNC3)c(S(N)(=O)=O)c2-c2nn[nH]n2)C1` (stereo partly drawn) [Example 270, 2-Amino-N-((3R)-3-(4-(N—((R)-pyrrolidin-3-yl)sulfamoyl)-3-sulfamoyl-2-(2H-tetrazol-5-yl)phenyl)cyclohexyl)acetamide] the Efflux ratio [3] was 1.00 and the “Escherichia coli (NDM-1) MITC95” value [1] was 1.563 µM.

With `C[C@@H](N)c1nc2c(-c3ccc(S(=O)(=O)N[C@@H]4CCNC4)c(S(N)(=O)=O)c3-c3nn[nH]n3)cccc2[nH]1` [Example 273, 4-(2-((R)-1-aminoethyl)-1H-benzo[d]imidazol-4-yl)-N1-((R)-pyrrolidin-3-yl)-3-(2H-tetrazol-5-yl)benzene-1,2-disulfonamide] the Efflux ratio [3] was 1.00 and the “Escherichia coli (NDM-1) MITC95” value [1] was 1.563 µM.

For `NCc1nc2cc(-c3ccc(S(=O)(=O)N[C@@H]4CCNC4)c(S(N)(=O)=O)c3-c3nn[nH]n3)ccc2[nH]1` [Example 274, (R)-4-(2-(aminomethyl)-1H-benzo[d]imidazol-5-yl)-N1-(pyrrolidin-3-yl)-3-(2H-tetrazol-5-yl)benzene-1,2-disulfonamide], the Efflux ratio [3] was 1.00 and the “Escherichia coli (NDM-1) MITC95” value [1] was 0.7813 µM.

With `Nc1cccc(-c2ccc(S(=O)(=O)N[C@@H]3CCNC3)c(S(N)(=O)=O)c2-c2nn[nH]n2)n1` [Example 277, (R)-4-(6-aminopyridin-2-yl)-N1-(pyrrolidin-3-yl)-3-(2H-tetrazol-5-yl)benzene-1,2-disulfonamide] the Efflux ratio [3] was 1.00 and the “Escherichia coli (NDM-1) MITC95” value [1] was 0.7813 µM.

For `NCc1nc2c(-c3ccc(S(=O)(=O)N[C@@H]4CCNC4)c(S(N)(=O)=O)c3-c3nn[nH]n3)cccc2[nH]1` [Example 283, (R)-4-(2-(aminomethyl)-1H-benzo[d]imidazol-4-yl)-N1-(pyrrolidin-3-yl)-3-(2H-tetrazol-5-yl)benzene-1,2-disulfonamide], the Efflux ratio [3] was 1.00 and the “Escherichia coli (NDM-1) MITC95” value [1] was 0.7813 µM.

In the case of `NS(=O)(=O)c1c(S(=O)(=O)N[C@@H]2CCNC2)ccc(-c2cccn3ccnc23)c1-c1nn[nH]n1` [Example 291, (R)-4-(imidazo[1,2-a]pyridin-8-yl)-N1-(pyrrolidin-3-yl)-3-(2H-tetrazol-5-yl)benzene-1,2-disulfonamide], the Efflux ratio [3] is reported as 1.00 and the “Escherichia coli (NDM-1) MITC95” value [1] is reported as 0.7813 µM.

With `NC(=O)c1nc2c(-c3ccc(S(=O)(=O)N[C@H]4CCNC4)c(S(N)(=O)=O)c3-c3nn[nH]n3)cccc2[nH]1` [Example 292, (S)-4-(4-(N-(pyrrolidin-3-yl)sulfamoyl)-3-sulfamoyl-2-(2H-tetrazol-5-yl)phenyl)-1H-benzo[d]imidazole-2-carboxamide] the Efflux ratio [3] was 0.50 and the “Escherichia coli (NDM-1) MITC95” value [1] was 1.563 µM.

With `NCc1nc2c(-c3ccc(S(=O)(=O)NC[C@H](O)CN)c(S(N)(=O)=O)c3-c3nn[nH]n3)cccc2[nH]1` [Example 299, (R)—N1-(3-amino-2-hydroxypropyl)-4-(2-(aminomethyl)-1H-benzo[d]imidazol-4-yl)-3-(2H-tetrazol-5-yl)benzene-1,2-disulfonamide] the Efflux ratio [3] was 1.00 and the “Escherichia coli (NDM-1) MITC95” value [1] was 0.7813 µM.

`NCc1nc2c(-c3ccc(S(=O)(=O)NC[C@@H]4CNCCN4)c(S(N)(=O)=O)c3-c3nn[nH]n3)cccc2[nH]1` [Example 311, (S)-4-(2-(aminomethyl)-1H-benzo[d]imidazol-4-yl)-N-(piperazin-2-ylmethyl)-3-(2H-tetrazol-5-yl)benzene-1,2-disulfonamide] was tested, and the “Escherichia coli (NDM-1) MITC95” value [1] was 1.563 µM and the “Serratia marcescens (IMP-1) MITC95” value [2] was 1.563 µM.

In the case of `Nc1nc2c(-c3ccc(S(=O)(=O)NC[C@H]4CNCCN4)c(S(N)(=O)=O)c3-c3nn[nH]n3)cccc2[nH]1` [Example 314, (R)-4-(2-amino-1H-benzo[d]imidazol-4-yl)-N1-(piperazin-2-ylmethyl)-3-(2H-tetrazol-5-yl)benzene-1,2-disulfonamide], the Efflux ratio [3] is reported as 1.00 and the “Escherichia coli (NDM-1) MITC95” value [1] is reported as 0.7813 µM.

For `N[C@H](CO)c1nc2c(-c3ccc(S(=O)(=O)N[C@H]4CNC[C@H]4N)c(S(N)(=O)=O)c3-c3nn[nH]n3)cccc2[nH]1` [Example 323, 4-(2-((S)-1-amino-2-hydroxyethyl)-1H-benzo[d]imidazol-4-yl)-N1-((3S,4R)-4-aminopyrrolidin-3-yl)-3-(2H-tetrazol-5-yl)benzene-1,2-disulfonamide], the Efflux ratio [3] was 1.00 and the “Escherichia coli (NDM-1) MITC95” value [1] was 1.563 µM.

With `NCCNS(=O)(=O)c1ccc(-c2cccc3[nH]c([C@@H](N)CO)nc23)c(-c2nn[nH]n2)c1S(N)(=O)=O` [Example 331, (R)-4-(2-(1-amino-2-hydroxyethyl)-1H-benzo[d]imidazol-4-yl)-N1-(2-aminoethyl)-3-(2H-tetrazol-5-yl)benzene-1,2-disulfonamide] the Efflux ratio [3] was 1.00 and the “Escherichia coli (NDM-1) MITC95” value [1] was 1.563 µM.

With `Nc1nc2c(-c3ccc(S(=O)(=O)NC[C@@]4(N)CCNC4)c(S(N)(=O)=O)c3-c3nn[nH]n3)cccc2s1` [Example 367, (R)-4-(2-aminobenzo[d]thiazol-4-yl)-N1-((3-aminopyrrolidin-3-yl)methyl)-3-(2H-tetrazol-5-yl)benzene-1,2-disulfonamide] the Efflux ratio [3] was 0.50 and the “Escherichia coli (NDM-1) MITC95” value [1] was 1.563 µM.

With `C[C@H](CN)NS(=O)(=O)c1ccc(-c2cccc3[nH]c(CN)nc23)c(-c2nn[nH]n2)c1S(N)(=O)=O` [Example 383, (R)-4-(2-(aminomethyl)-1H-benzo[d]imidazol-4-yl)-N1-(1-aminopropan-2-yl)-3-(2H-tetrazol-5-yl)benzene-1,2-disulfonamide] the Efflux ratio [3] was 1.00 and the “Escherichia coli (NDM-1) MITC95” value [1] was 0.7813 µM.

In the case of `C[C@H](CN)NS(=O)(=O)c1ccc(-c2cccn3ccnc23)c(-c2nn[nH]n2)c1S(N)(=O)=O` [Example 384, (R)—N1-(1-aminopropan-2-yl)-4-(imidazo[1,2-a]pyridin-8-yl)-3-(2H-tetrazol-5-yl)benzene-1,2-disulfonamide], the Efflux ratio [3] is reported as 0.50 and the “Escherichia coli (NDM-1) MITC95” value [1] is reported as 1.563 µM.

In the case of `NCCNS(=O)(=O)c1ccc(-c2ccc3[nH]c(CN)nc3c2)c(-c2nn[nH]n2)c1S(N)(=O)=O` [Example 466, N1-(2-aminoethyl)-4-(2-(aminomethyl)-1H-benzo[d]imidazol-5-yl)-3-(2H-tetrazol-5-yl)benzene-1,2-disulfonamide], the “Escherichia coli (NDM-1) MITC95” value [1] is reported as 0.7813 µM.

With `NCc1nc2cc(-c3ccc(S(=O)(=O)NC[C@@H](O)CN)c(S(N)(=O)=O)c3-c3nn[nH]n3)ccc2s1` [Example 473, (S)-N1-(3-amino-2-hydroxypropyl)-4-(2-(aminomethyl)benzo[d]thiazol-5-yl)-3-(2H-tetrazol-5-yl)benzene-1,2-disulfonamide] the “Escherichia coli (NDM-1) MITC95” value [1] was 0.7813 µM.

With `NCc1nc2cc(-c3ccc(S(=O)(=O)N[C@@H](CN)CO)c(S(N)(=O)=O)c3-c3nn[nH]n3)ccc2[nH]1` [Example 474, (S)-N1-(1-amino-3-hydroxypropan-2-yl)-4-(2-(aminomethyl)-1H-benzo[d]imidazol-5-yl)-3-(2H-tetrazol-5-yl)benzene-1,2-disulfonamide] the “Escherichia coli (NDM-1) MITC95” value [1] was 0.7813 µM.

For `NCc1nc2cc(-c3ccc(S(=O)(=O)N[C@@H](CN)CO)c(S(N)(=O)=O)c3-c3nn[nH]n3)ccc2s1` [Example 475, (S)-N1-(1-amino-3-hydroxypropan-2-yl)-4-(2-(aminomethyl)benzo[d]thiazol-5-yl)-3-(2H-tetrazol-5-yl)benzene-1,2-disulfonamide], the “Escherichia coli (NDM-1) MITC95” value [1] was 0.7813 µM.

In the case of `C[C@@H](CCN)NS(=O)(=O)c1ccc(-c2ccc(N)nc2)c(-c2nn[nH]n2)c1S(N)(=O)=O` [Example 499, (5)-N1-(4-aminobutan-2-yl)-4-(6-aminopyridin-3-yl)-3-(1H-tetrazol-5-yl)benzene-1,2-disulfonamide], the “Escherichia coli (NDM-1) MITC95” value ([1]; CLB30016) is reported as 0.7813 µM.
